Test results: ChEMBL document CHEMBL1201862, “PubChem BioAssay data set” (2004)
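Results reflect a 48-hour exposure of cells in 96-well plates to compound at five concentrations. At the GI50, growth is halved.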 Active and inactive are the calls of the source. Rule as the data show it: active = GI50 up to about 1.1 µM and inactive = higher.

What was measured:
Assay in all cases: growth of human tumour cells (NCI), 48 h
RXF 393 = tested on: RXF 393
SW-620 = tested on: SW-620
NCI-H23 = tested on: NCI-H23
MDA-N = tested on: MDA-N
SNB-19 = tested on: SNB-19
SK-MEL-2 = tested on: SK-MEL-2
SK-MEL-28 = tested on: SK-MEL-28
LOX IMVI = tested on: LOX IMVI
K562 = tested on: K562
A549 = tested on: A549
OVCAR-5 = tested on: OVCAR-5
HT-29 = tested on: HT-29
RPMI-8226 = tested on: RPMI-8226
SR = tested on: SR
Malme-3M = tested on: Malme-3M
CAKI-1 = tested on: CAKI-1
NCI-H522 = tested on: NCI-H522
NCI-H460 = tested on: NCI-H460
786-0 = tested on: 786-0
SN12C = tested on: SN12C

Measured: GI50

CC1(C)[C@@H]2C[C@H]1c1cnc(-c3ccccn3)cc1C2[C@@H]1c2cc(-c3ccccn3)ncc2[C@@H]2C[C@H]1C2(C)C (stereo partly drawn)
inactive: RXF 393 > 100 µM | SW-620 84.3 µM | NCI-H23 41.2 µM | MDA-N > 100 µM | SNB-19 69.3 µM | SK-MEL-2 68.9 µM | SK-MEL-28 88.3 µM | LOX IMVI > 100 µM | K562 22.6 µM | A549 30.3 µM | OVCAR-5 > 100 µM | HT-29 45.3 µM | RPMI-8226 31.7 µM | SR 62.8 µM | Malme-3M 58.9 µM | CAKI-1 70.5 µM | NCI-H522 25.3 µM | NCI-H460 2.77 µM | 786-0 86.1 µM | SN12C 97.5 µM

CN(C(=O)c1ccc(Cl)s1)C(=S)N(C)C(=O)c1ccc(Cl)s1
inactive: RXF 393 > 10 µM | SW-620 > 10 µM | NCI-H23 > 10 µM | MDA-N > 10 µM | SNB-19 > 10 µM | SK-MEL-2 > 10 µM | SK-MEL-28 > 10 µM | LOX IMVI > 10 µM | K562 > 10 µM | A549 > 10 µM | OVCAR-5 > 10 µM | HT-29 > 10 µM | RPMI-8226 > 10 µM | SR > 10 µM | Malme-3M > 10 µM | CAKI-1 > 10 µM | NCI-H522 > 10 µM | NCI-H460 > 10 µM | 786-0 > 10 µM | SN12C > 10 µM

C=CCCC(=O)CC(O)(C(F)(F)F)C(F)(F)F
inactive: RXF 393 > 100 µM | SW-620 > 100 µM | NCI-H23 > 100 µM | MDA-N > 100 µM | SNB-19 > 100 µM | SK-MEL-2 > 100 µM | SK-MEL-28 > 100 µM | LOX IMVI > 100 µM | K562 > 100 µM | A549 > 100 µM | OVCAR-5 > 100 µM | HT-29 > 100 µM | RPMI-8226 > 100 µM | SR > 100 µM | Malme-3M > 100 µM | CAKI-1 > 100 µM | NCI-H522 > 100 µM | NCI-H460 > 100 µM | 786-0 > 100 µM

CC(C)S(=O)(=O)ON1C(=O)c2ccc(N(C)C)cc2C1=O
inactive: RXF 393 13.2 µM | SW-620 11.4 µM | NCI-H23 27.7 µM | MDA-N 4.01 µM | SNB-19 40.4 µM | SK-MEL-2 4.01 µM | SK-MEL-28 21.4 µM | LOX IMVI 13.2 µM | K562 3.41 µM | A549 25 µM | OVCAR-5 18.8 µM | HT-29 22.8 µM | RPMI-8226 2.58 µM | SR 2.38 µM | Malme-3M 2.93 µM | CAKI-1 5.35 µM | NCI-H522 1.52 µM | NCI-H460 19.9 µM | 786-0 4.66 µM | SN12C 16.9 µM

CC(=O)N(O)[C@@H]1CC[C@H](n2cnc3c(N)ncnc32)C1
inactive: RXF 393 > 100 µM | SW-620 > 100 µM | NCI-H23 > 100 µM | MDA-N > 100 µM | SNB-19 > 100 µM | SK-MEL-2 > 100 µM | SK-MEL-28 > 100 µM | LOX IMVI > 100 µM | K562 > 100 µM | A549 > 100 µM | OVCAR-5 > 100 µM | RPMI-8226 > 100 µM | SR > 100 µM | Malme-3M > 100 µM | CAKI-1 > 100 µM | NCI-H522 > 100 µM | NCI-H460 > 100 µM | 786-0 > 100 µM | SN12C > 100 µM
